Reference: patent publication US20260242416A1, “ANTIMICROBIAL PEPTIDES” (priority 2023, published 2026)
Where a SMILES comes first, the peptide text is derived from it.

Key:
[1] = test system: Salmonella enterica serovar Enteritidis (human clinical isolate); type: cell-based; conditions: serovar Enteritidis (human clinical isolate)
Experimental: (§1) Bacteria were grown overnight at 37° C. in Mueller-Hinton Broth (MHB; Sigma-Aldrich, St. Louis. MO, USA) in a shaking incubator and aliquoted into cryovials with a 50% glycerol solution in a 1:1 ratio. No additives were added to the MHB during the growth of bacterial isolates. Glycerol stocks were stored at −80° C.
(§2) The antimicrobial activity of the putative AMPs was determined by a broth microdilution assay as described by the Clinical and Laboratory Standards Institute, with the published adaptations for testing of cationic peptides. Escherichia coli 25922 and Staphylococcus aureus 29213 isolates were purchased from the American Type Culture Collection (ATCC; Manassas, VA, USA). A human clinical isolate of Salmonella enterica serovar Enteritidis was provided by the BC Centre for Disease Control. Bacteria from stocks stored at −80° C. were streaked onto nonselective Columbia blood agar with 5% sheep blood (Oxoid) and incubated overnight at 37° C. Next, 2-4 colonies were streaked onto a new agar plate to ensure uniform health of colonies used in the broth microdilution assay. Isolated colonies were suspended in MHB and the optical density was measured with a spectrophotometer to create an initial inoculum concentration of approximately 1×10^8 cfu/mL. The inoculum was diluted 1:250 to a final concentration of 2-8×10^5 cfu/mL, which was confirmed by performing a Total Viability Count (TVC). The TVC consisted of plating a 1:1000 dilution of the final inoculum on nonselective media and was also used to confirm the health and purity of the inoculum in each trial.
(§3) Lyophilized 80 μg peptide aliquots synthesized by GenScript (Piscataway, NJ, USA) were resuspended to 1.28 mg/mL with UltraPure water (Thermo Fisher Scientific, Waltham, MA, USA) and serially diluted in polypropylene 96-well microtiter plates (Greiner Bio-One #650261, Kremsmunster, Austria) from 128 down to 0.5 μg/mL. Two columns per plate were reserved for growth and sterility controls. Inoculum was added to the wells containing the peptide and the growth control. Plates were incubated for 20-24 h at 37° C. The minimum inhibitory concentration (MIC) was determined as the lowest peptide concentration where there was no visible bacterial growth.

[2] = test system: E. coli ATCC 25922; type: cell-based, Escherichia coli; conditions: ATCC 25922
Experimental: as §1, §2, §3

[3] = test system: S. aureus ATCC 29213; type: cell-based, Staphylococcus aureus; conditions: ATCC 29213
Experimental: as §1, §2, §3

CC(C)[C@H](N)C(=O)N[C@@H](CCCCN)C(=O)N[C@@H](CS)C(=O)N[C@@H](CCCNC(=N)N)C(=O)N[C@H](C(=O)N[C@@H](CCCNC(=N)N)C(=O)N[C@@H](CCCNC(=N)N)C(=O)O)C(C)C [ApMe1, VKCRVRR] (H-VKCRVRR-OH; N-terminus and C-terminus assumed)
>128/>128/>128 ug/mL: MIC (ug/mL) S. Enteritidis [1] | MIC (ug/mL) E. coli [2] | MIC (ug/mL) S. aureus [3]

CC(C)C[C@H](NC(=O)[C@H](C)NC(=O)[C@@H](NC(=O)[C@H](CC(=O)O)NC(=O)[C@H](CCCNC(=N)N)NC(=O)[C@H](CCCCN)NC(=O)[C@H](Cc1ccccc1)NC(=O)[C@@H](NC(=O)[C@H](CCC(=O)O)NC(=O)[C@H](CCCCN)NC(=O)[C@H](Cc1c[nH]cn1)NC(=O)[C@H](C)NC(=O)CN)C(C)C)[C@@H](C)O)C(=O)N[C@H](C(=O)N[C@@H](CCCCN)C(=O)N[C@@H](CCC(=O)O)C(=O)N[C@@H](C)C(=O)N[C@@H](C)C(=O)N[C@@H](CCCCN)C(=O)N[C@@H](CCCCN)C(=O)N[C@@H](C)C(=O)N[C@@H](CCCCN)C(=O)N[C@@H](CCCCN)C(=O)O)[C@@H](C)O [ApMe2] (H-GAHKEVFKRDTALTKEAAKKAKK-OH; N-terminus and C-terminus assumed)
>128/>128/>128 ug/mL: MIC (ug/mL) S. Enteritidis [1] | MIC (ug/mL) E. coli [2] | MIC (ug/mL) S. aureus [3]

CC[C@H](C)[C@H](NC(=O)[C@H](CC(C)C)NC(=O)CNC(=O)[C@H](Cc1c[nH]c2ccccc12)NC(=O)CN)C(=O)N[C@@H](CC(N)=O)C(=O)N[C@H](C(=O)N[C@@H](CCCCN)C(=O)N[C@H](C(=O)N1CCC[C@H]1C(=O)N1CCC[C@H]1C(=O)N[C@H](C(=O)N[C@@H](CC(C)C)C(=O)N[C@@H](Cc1c[nH]cn1)C(=O)N[C@@H](CCCCN)C(=O)N[C@H](C(=O)N[C@@H](CO)C(=O)N[C@H](C(=O)N1CCC[C@H]1C(=O)N[C@@H](CC(C)C)C(=O)N[C@H](C(=O)N[C@@H](CO)C(=O)N[C@@H](CCCCN)C(=O)N[C@@H](CCCNC(=N)N)C(=O)O)C(C)C)C(C)C)C(C)C)C(C)C)[C@@H](C)CC)[C@@H](C)CC [ApMe3] (H-GWGLINIKIPPVLHKVSVPLVSKR-OH; N-terminus and C-terminus assumed)
>128/>128/>128 ug/mL: MIC (ug/mL) S. Enteritidis [1] | MIC (ug/mL) E. coli [2] | MIC (ug/mL) S. aureus [3]

CC[C@H](C)[C@H](NC(=O)[C@H](CC(C)C)NC(=O)[C@H](CO)NC(=O)[C@H](CCCCN)NC(=O)[C@H](CC(C)C)NC(=O)[C@@H](NC(=O)[C@H](Cc1ccc(O)cc1)NC(=O)[C@H](CCCNC(=N)N)NC(=O)[C@H](CCCNC(=N)N)NC(=O)[C@H](Cc1c[nH]cn1)NC(=O)[C@H](CCCNC(=N)N)NC(=O)[C@H](CCC(=O)O)NC(=O)[C@H](Cc1c[nH]cn1)NC(=O)[C@H](CCCNC(=N)N)NC(=O)[C@H](CC(C)C)NC(=O)[C@H](CCCCN)NC(=O)[C@@H](NC(=O)[C@H](Cc1c[nH]cn1)NC(=O)[C@H](Cc1c[nH]cn1)NC(=O)[C@H](Cc1c[nH]cn1)NC(=O)[C@@H](N)CCCCN)[C@@H](C)CC)[C@@H](C)CC)C(=O)O [ApMe4] (H-KHHHIKLRHERHRRYILKSLI-OH; N-terminus and C-terminus assumed)
>128/>128/>128 ug/mL: MIC (ug/mL) S. Enteritidis [1] | MIC (ug/mL) E. coli [2] | MIC (ug/mL) S. aureus [3]

CC[C@H](C)[C@H](NC(=O)[C@@H](N)CO)C(=O)N[C@@H](CC(C)C)C(=O)N[C@@H](CO)C(=O)N[C@H](C(=O)N[C@@H](CC(C)C)C(=O)N[C@@H](CO)C(=O)N[C@@H](Cc1c[nH]cn1)C(=O)N[C@@H](CCCCN)C(=O)N[C@@H](CCCNC(=N)N)C(=O)O)[C@@H](C)O [ApMe5, SILSTLSHKR] (H-SILSTLSHKR-OH; N-terminus and C-terminus assumed)
>128/>128/>128 ug/mL: MIC (ug/mL) S. Enteritidis [1] | MIC (ug/mL) E. coli [2] | MIC (ug/mL) S. aureus [3]

CC[C@H](C)[C@H](NC(=O)[C@H](CCCCN)NC(=O)[C@H](CCCNC(=N)N)NC(=O)[C@H](C)NC(=O)[C@@H](N)CCCNC(=N)N)C(=O)N[C@@H](CCCNC(=N)N)C(=O)N[C@@H](CCCNC(=N)N)C(=O)N[C@@H](CCCNC(=N)N)C(=O)N[C@@H](CCCNC(=N)N)C(=O)NCC(=O)N[C@@H](CO)C(=O)N[C@@H](CC(C)C)C(=O)N[C@@H](CCCNC(=N)N)C(=O)N[C@@H](Cc1c[nH]cn1)C(=O)N[C@@H](CS)C(=O)N[C@H](C(=O)N[C@H](C(=O)N[C@H](C(=O)N1CCC[C@H]1C(=O)N[C@@H](CO)C(=O)N[C@H](C(=O)N1CCC[C@H]1C(=O)N[C@@H](CO)C(=O)NCC(=O)N[C@@H](CCCNC(=N)N)C(=O)O)[C@@H](C)O)[C@@H](C)CC)[C@@H](C)O)C(C)C [ApMe6] (H-RARKIRRRRGSLRHCVTIPSTPSGR-OH; N-terminus and C-terminus assumed)
>128/>128/>128 ug/mL: MIC (ug/mL) S. Enteritidis [1] | MIC (ug/mL) E. coli [2] | MIC (ug/mL) S. aureus [3]

CC(C)[C@H](NC(=O)[C@H](CCCCN)NC(=O)CNC(=O)[C@H](C)NC(=O)CNC(=O)[C@H](C)NC(=O)[C@H](C)N)C(=O)N[C@H](C(=O)N[C@@H](CCCCN)C(=O)N[C@@H](CO)C(=O)N[C@@H](C)C(=O)N[C@@H](CCC(N)=O)C(=O)N[C@@H](CCCCN)C(=O)N[C@@H](C)C(=O)N[C@@H](CCC(N)=O)C(=O)N[C@@H](CCCCN)C(=O)N[C@@H](C)C(=O)N[C@@H](CCCCN)C(=O)O)[C@@H](C)O [BoAr1, AAGAGKVTKSAQKAQKAK] (H-AAGAGKVTKSAQKAQKAK-OH; N-terminus and C-terminus assumed)
>128/>128/>128 ug/mL: MIC (ug/mL) S. Enteritidis [1] | MIC (ug/mL) E. coli [2] | MIC (ug/mL) S. aureus [3]

CC[C@H](C)[C@H](NC(=O)[C@H](CCCCN)NC(=O)[C@H](CC(C)C)NC(=O)[C@H](Cc1c[nH]c2ccccc12)NC(=O)[C@@H]1CCCN1C(=O)[C@H](Cc1c[nH]cn1)NC(=O)[C@H](CCCCN)NC(=O)[C@H](CC(C)C)NC(=O)[C@H](CS)NC(=O)[C@H](CCC(=O)O)NC(=O)[C@H](C)NC(=O)[C@H](C)NC(=O)[C@@H](NC(=O)[C@H](C)N)[C@@H](C)O)C(=O)N[C@@H](CCCCN)C(=O)N[C@@H](CCCCN)C(=O)O [BoAr2, ATAAECLKHPWLKIKK] (H-ATAAECLKHPWLKIKK-OH; N-terminus and C-terminus assumed)
>128/>128/>128 ug/mL: MIC (ug/mL) S. Enteritidis [1] | MIC (ug/mL) E. coli [2] | MIC (ug/mL) S. aureus [3]

CC[C@H](C)[C@H](N)C(=O)N[C@H](C(=O)N[C@@H](CCCNC(=N)N)C(=O)N[C@@H](C)C(=O)N[C@H](C(=O)N[C@@H](C)C(=O)N[C@@H](C)C(=O)N[C@@H](CCC(=O)O)C(=O)N[C@@H](CS)C(=O)N[C@@H](CC(C)C)C(=O)N[C@@H](CCCCN)C(=O)N[C@@H](Cc1c[nH]cn1)C(=O)N1CCC[C@H]1C(=O)N[C@@H](Cc1c[nH]c2ccccc12)C(=O)N[C@@H](CC(C)C)C(=O)N[C@@H](CCCCN)C(=O)N[C@H](C(=O)N[C@@H](CCCCN)C(=O)N[C@@H](CCCCN)C(=O)O)[C@@H](C)CC)[C@@H](C)O)[C@@H](C)CC [BoAr3, IIRATAAECLKHPWLKIKK] (H-IIRATAAECLKHPWLKIKK-OH; N-terminus and C-terminus assumed)
>128/>128/>128 ug/mL: MIC (ug/mL) S. Enteritidis [1] | MIC (ug/mL) E. coli [2] | MIC (ug/mL) S. aureus [3]

CC(C)C[C@H](NC(=O)[C@H](CO)NC(=O)[C@H](C)NC(=O)[C@@H](NC(=O)[C@@H](N)CO)C(C)C)C(=O)N[C@@H](C)C(=O)N[C@@H](CCCCN)C(=O)N[C@@H](CC(N)=O)C(=O)N[C@@H](CO)C(=O)N[C@@H](C)C(=O)N[C@@H](Cc1c[nH]c2ccccc12)C(=O)N1CCC[C@H]1C(=O)N[C@H](C(=O)N[C@@H](CO)C(=O)N[C@@H](CC(C)C)C(=O)N[C@@H](CCCCN)C(=O)N[C@@H](CCCNC(=N)N)C(=O)O)C(C)C [BoAr4, SVASLAKNSAWPVSLKR] (H-SVASLAKNSAWPVSLKR-OH; N-terminus and C-terminus assumed)
>128/>128/>128 ug/mL: MIC (ug/mL) S. Enteritidis [1] | MIC (ug/mL) E. coli [2] | MIC (ug/mL) S. aureus [3]
